Results as given in patent publication US5139740A, “Polyprenyl compound composition for soft capsules” (Eisai Co., Ltd., priority 1989, dated 1992).

Key:
[1] = Rat lymph absorption test (lymph cannulation method, HPLC); assay type: in vivo; details: SD rats, 12-week old; 5 mg/kg indometacin farnesyl orally, formulated with the named additive
Procedure: In this test, 5 mg/kg of indometacin farnesyl was orally administered to SD rats (12-week old) and indometacin farnesyl in the lymphatic vessels was determined according to HPLC by the lymph cannulation method.

[2] = beagle; 200 mg indometacin farnesyl orally, formulated with the named additive
Procedure: In this test, the crossover method was employed by using six female beagles with the administration of 200 mg of indometacin farnesyl orally to each of them 30 min after breakfast, and sampling their blood at intervals to determine the concentration of indometacin farnesyl in their blood according to HPLC.
Six female beagles were used to determine indometacin farnesyl in the blood by the crossover method.
In the test, each sample was orally administered 30 min after breakfast and 2.5 ml of blood was sampled at intervals to determine the concentration of indometacin farnesyl under the HPLC conditions which will be described below.
The maximum blood concentration, Cmax (μg/ml), and the area under the blood concentration-time curve, AUC (μg hr/ml), 6 h after the administration of each of samples A to F were determined and expressed in terms of relative value with respect to those of a standard formulation.
stationary phase: Nucleosil®10 C18, 4.6 mm diameter×150mm
mobile phase: methanol/water (300/16)

[3] = cited from earlier work; for adverse reactions: clinical / reported in the literature

Row | Structure (SMILES) | absorption of indometacin farnesyl into lymph (in words) [1] | absorption of indometacin farnesyl (in words) [2] | adverse reactions [3] | antiinflammatory effect ([3]; prior art statement)
1 | CCCCC/C=C\C/C=C\CCCCCCCC(=O)O [linolic acid] | particularly excellent absorption | particularly excellent absorption | – | –
2 | CCCCCCCC/C=C\CCCCCCCC(=O)O [oleic acid] | – | particularly excellent absorption | – | –
3 | COc1ccc2c(c1)c(CC(=O)O)c(C)n2C(=O)c1ccc(Cl)cc1 [indometacin] | – | – | various adverse reactions such as gastrointestinal or renal disturbances | –
4 | COc1ccc2c(c1)c(CC(=O)OCC=C(C)CC/C=C(\C)CCC=C(C)C)c(C)n2C(=O)c1ccc(Cl)cc1 [indomethacin farnesyl, (6E)-3,7,11-trimethyl-2,6,10-dodecatrienyl 1-(p-chlorobenzoyl)-5-methoxy-2-methyl-lH-indole-3-acetate] | – | – | only slight adverse reactions | long-lasting antiinflammatory
